This is an account of results in patent publication US20200129412A1, “SILICONE PAD HAVING ACTIVE INGREDIENTS FOR SKIN CARE AND AGAINST SKIN AGING” (Apricot GmbH, priority 2017, published 2020).

The test system of this data set is skin of a subject. As to the kind of experiment: Drug absorption study: diffusion of stained hyaluron from silicone pad into the skin. The format is in vivo. Particulars: 6 mg powdered hyaluron stained green in adhesive layer; 2 weeks of daily use on skin. The protocol:
FIG. 3A depicts a silicone pad with an adhesive layer. The adhesive layer comprises 6 mg of powdered hyaluron (<20 T Dalton). […] For manufacturing a silicone pad, the adhesive layer was bonded to a silicone body. The silicone pad was applied daily to the skin of a subject for a period of 2 weeks.

As for hyaluron, the “concentration of hyaluron in the silicone pad after use (decrease of color)” value was “decreases markedly” and the “distribution of hyaluron from the pad” value is given as “delivered to the skin's lower layers”.
